Reference: patent US9695155B2, “Herbicidal substituted pyrimidinyloxy benzene compounds” (E. I. DU PONT DE NEMOURS AND COMPANY, priority 2013, dated 2017)

Key:
[1] = test system: canarygrass; experiment: Test D preemergence; type: in vivo, Phalaris minor; conditions: Phalaris minor, pre-emergence
Source text: (§1) Seeds of plant species selected from bluegrass (annual bluegrass, Poa annua), blackgrass (Alopecurus myosuroides), canarygrass (littleseed canarygrass, Phalaris minor), chickweed (common chickweed, Stellaria media), galium (catchweed bedstraw, Galium aparine), bromegrass, downy (downy bromegrass, Bromus tectorum), field poppy (Papaver rhoeas), field violet (Viola arvensis), green foxtail (Setaria viridis), deadnettle (henbit deadnettle, Lamium amplexicaule), Italian ryegrass (Lolium multiflorum), kochia (Kochia scoparia), lambsquarters (Chenopodium album), oilseed rape (Brassica napus), pigweed (Amaranthus retroflexus), chamomile (scentless chamomile, Matricaria inodora), Russian thistle (Salsola kali), speedwell (bird's-eye speedwell, Veronica persica), spring barley (Hordeum vulgare), spring wheat (Triticum aestivum), wild buckwheat (Polygonum convolvulus), wild mustard (Sinapis arvensis), wild oat (Avena fatua), wild radish (Raphanus raphanistrum), windgrass (Apera spica-venti), winter barley (Hordeum vulgare), and winter wheat (Triticum aestivum) were planted into a silt loam soil and treated preemergence with test chemicals formulated in a non-phytotoxic solvent mixture which included a surfactant.
(§2) At the same time, these species were planted in pots containing Redi-Earth® planting medium (Scotts Company, 14111 Scottslawn Road, Marysville, Ohio 43041) comprising spaghnum peat moss, vermiculite, wetting agent and starter nutrients and treated with postemergence applications of the test chemicals formulated in the same manner. Plants ranged in height from 2 to 18 cm (1- to 4-leaf stage). Treated plants and controls were maintained in a controlled growth environment for 7 to 21 days after which time all species were compared to controls and visually evaluated. Plant response ratings, summarized in Table D, are based on a scale of 0 to 100 where 0 is no effect and 100 is complete control. A dash (-) response means no test result.

[2] = test system: bromegrass, downy; experiment: Test D preemergence; type: in vivo, Bromus tectorum; conditions: Bromus tectorum, pre-emergence
In short: (§3)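 Values are 0–100 visual control ratings (0 none, 100 complete) given 7–21 days after application. Soil for preemergence was silt loam; postemergence plants stood 2–18 cm tall.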

[3] = test system: deadnettle; experiment: Test D preemergence; type: in vivo, Lamium amplexicaule; conditions: Lamium amplexicaule, pre-emergence
In short: as §3

[4] = test system: Italian ryegrass; experiment: Test D preemergence; type: in vivo, Lolium multiflorum; conditions: Lolium multiflorum, pre-emergence
In short: as §3

[5] = test system: spring barley; experiment: Test D preemergence; type: in vivo, Hordeum vulgare; conditions: Hordeum vulgare, pre-emergence
In short: as §3

[6] = test system: winter barley; experiment: Test D preemergence; type: in vivo, Hordeum vulgare; conditions: Hordeum vulgare, pre-emergence
In short: as §3

[7] = test system: chickweed; experiment: Test D postemergence; type: in vivo, Stellaria media; conditions: Stellaria media, post-emergence
Source text: as §1, §2

[8] = test system: field violet; experiment: Test D postemergence; type: in vivo, Viola arvensis; conditions: Viola arvensis, post-emergence
Source text: as §1, §2

[9] = test system: pigweed; experiment: Test D postemergence; type: in vivo, Amaranthus retroflexus; conditions: Amaranthus retroflexus, post-emergence
Source text: as §1, §2

FC(F)(F)COc1cnn(-c2ccccc2Oc2ncc(Cl)cn2)c1 [Compound 138, 5-chloro-2-[2-[4-(2,2,2-trifluoroethoxy)-1H-pyrazol-1-yl]phenoxy]pyrimidine]
pest or weed control at 16 g/ha ([1]; 16 g ai/ha, scale 0 (no effect) to 100 (complete control), read-out: Plant response rating, Canarygrass): 10%
pest or weed control at 31 g/ha ([1]; 31 g ai/ha, scale 0-100, read-out: Plant response rating, Canarygrass): 10%
pest or weed control at 62 g/ha ([1]; 62 g ai/ha, scale 0-100, read-out: Plant response rating, Canarygrass): 20%
pest or weed control at 125 g/ha ([1]; 125 g ai/ha, scale 0-100, read-out: Plant response rating, Canarygrass): 40%
pest or weed control at 16 g/ha ([2]; 16 g ai/ha, scale 0 (no effect) to 100 (complete control), read-out: Plant response rating, Bromegrass, Downy): 0%
pest or weed control at 31 g/ha ([2]; 31 g ai/ha, scale 0-100, read-out: Plant response rating, Bromegrass, Downy): 0%
pest or weed control at 62 g/ha ([2]; 62 g ai/ha, scale 0-100, read-out: Plant response rating, Bromegrass, Downy): 0%
pest or weed control at 125 g/ha ([2]; 125 g ai/ha, scale 0-100, read-out: Plant response rating, Bromegrass, Downy): 10%
pest or weed control at 16 g/ha ([3]; 16 g ai/ha, scale 0 (no effect) to 100 (complete control), read-out: Plant response rating, Deadnettle): 5%
pest or weed control at 31 g/ha ([3]; 31 g ai/ha, scale 0-100, read-out: Plant response rating, Deadnettle): 5%
pest or weed control at 62 g/ha ([3]; 62 g ai/ha, scale 0-100, read-out: Plant response rating, Deadnettle): 20%
pest or weed control at 125 g/ha ([3]; 125 g ai/ha, scale 0-100, read-out: Plant response rating, Deadnettle): 30%
pest or weed control at 16 g/ha ([4]; 16 g ai/ha, scale 0 (no effect) to 100 (complete control), read-out: Plant response rating, Ryegrass, Italian): 0%
pest or weed control at 31 g/ha ([4]; 31 g ai/ha, scale 0 (no effect) to 100 (complete control), read-out: Plant response rating, Ryegrass, Italian): 0%
pest or weed control at 62 g/ha ([4]; 62 g ai/ha, scale 0-100, read-out: Plant response rating, Ryegrass, Italian): 0%
pest or weed control at 125 g/ha ([4]; 125 g ai/ha, scale 0-100, read-out: Plant response rating, Ryegrass, Italian): 10%
plant injury at 16 g/ha ([5]; 16 g ai/ha, scale 0 (no effect) to 100 (complete control), read-out: Plant response rating, Barley, Spring): 10%
plant injury at 31 g/ha ([5]; 31 g ai/ha, scale 0-100, read-out: Plant response rating, Barley, Spring): 10%
plant injury at 62 g/ha ([5]; 62 g ai/ha, scale 0-100, read-out: Plant response rating, Barley, Spring): 10%
plant injury at 125 g/ha ([5]; 125 g ai/ha, scale 0-100, read-out: Plant response rating, Barley, Spring): 15%
plant injury at 16 g/ha ([6]; 16 g ai/ha, scale 0 (no effect) to 100 (complete control), read-out: Plant response rating, Barley, Winter): 0%
plant injury at 31 g/ha ([6]; 31 g ai/ha, scale 0-100, read-out: Plant response rating, Barley, Winter): 0%
plant injury at 62 g/ha ([6]; 62 g ai/ha, scale 0-100, read-out: Plant response rating, Barley, Winter): 5%
plant injury at 125 g/ha ([6]; 125 g ai/ha, scale 0-100, read-out: Plant response rating, Barley, Winter): 15%
pest or weed control at 16 g/ha ([7]; 16 g ai/ha, scale 0-100, read-out: Plant response rating, Chickweed): 20%
pest or weed control at 31 g/ha ([7]; 31 g ai/ha, scale 0 to 100 (0 no effect, 100 complete control), read-out: Plant response rating, Chickweed): 20%
pest or weed control at 62 g/ha ([7]; 62 g ai/ha, scale 0 to 100 (0 no effect, 100 complete control), read-out: Plant response rating, Chickweed): 40%
pest or weed control at 125 g/ha ([7]; 125 g ai/ha, scale 0 to 100 (0 no effect, 100 complete control), read-out: Plant response rating, Chickweed): 55%
pest or weed control at 16 g/ha ([8]; 16 g ai/ha, scale 0-100, read-out: Plant response rating, Field Violet): 25%
pest or weed control at 31 g/ha ([8]; 31 g ai/ha, scale 0 to 100 (0 no effect, 100 complete control), read-out: Plant response rating, Field Violet): 50%
pest or weed control at 62 g/ha ([8]; 62 g ai/ha, scale 0 to 100 (0 no effect, 100 complete control), read-out: Plant response rating, Field Violet): 65%
pest or weed control at 125 g/ha ([8]; 125 g ai/ha, scale 0 to 100 (0 no effect, 100 complete control), read-out: Plant response rating, Field Violet): 75%
pest or weed control at 16 g/ha ([9]; 16 g ai/ha, scale 0-100, read-out: Plant response rating, Pigweed): 65%
pest or weed control at 31 g/ha ([9]; 31 g ai/ha, scale 0 to 100 (0 no effect, 100 complete control), read-out: Plant response rating, Pigweed): 70%
pest or weed control at 62 g/ha ([9]; 62 g ai/ha, scale 0 to 100 (0 no effect, 100 complete control), read-out: Plant response rating, Pigweed): 90%
pest or weed control at 125 g/ha ([9]; 125 g ai/ha, scale 0 to 100 (0 no effect, 100 complete control), read-out: Plant response rating, Pigweed): 90%
